# Results published in paper PMC10397409, “The action of physiological and synthetic steroids on the calcium channel CatSper in human sperm” (Frontiers in Cell and Developmental Biology, 2023).
# Several values for one entry are separate records, joined by “and”; a condition that tells them apart may be missing. Equal values may be shown once. Read-outs that look alike come from different tables or passages of the source.
# Experiments:
# CatSper [1] = target: T1, CatSper (Homo sapiens, UniProt Q7RTX7+Q86XQ3+Q8NEC5+Q96P56); assay: Steroid-induced increase in [Ca2+]i in human sperm (Fluo-4 HTS assay, screen 1 activators); format: cell-based; conditions: for Emax: read-out: Max amplitude (%) (± SD)
# T1 construct: Motile spermatozoa were selected by a ‘swim-up’ procedure; endogenous in cells; host or cells: motile human spermatozoa (swim-up) from healthy donors
# Description: (§1) Briefly, motile spermatozoa were selected by swim-up and labeled with the fluorescent calcium indicator Fluo-4 a.m. to image changes in [Ca^2+]i. After centrifugation to remove excess dye, Fluo-4 AM loaded cells were distributed in a 384-wells plate to obtain ∼125,000 cells/well. After measuring basal fluorescence, a first injection of compounds was performed in order to evaluate their effect on [Ca^2+]i alone. This first screen is therefore considered as a screen to search for ‘activators’. Fluorescence was recorded for 12 min during which sperm cells were continuously exposed to compounds. P4 or PGE1 were then added in the same wells to evaluate whether the tested compounds can reduce the ligand-induced activation of CatSper. This second screen was therefore considered to be a search for CatSper ‘inhibitors’.
# Human semen samples were collected from healthy donors by masturbation after a recommended sexual abstinence period of minimum 2 days. Semen samples were allowed to liquefy at 37°C for 15–30 min. […] Motile sperm were allowed to swim at 37°C for 1 hour. The supernatant was collected in 15 mL Falcon tubes and washed twice by centrifugation at 700 x g for 20 min. Sperm were supplemented with 3 mg/mL HSA.
# 20 μL of cells (corresponding to ∼125,000 cells) loaded with Fluo-4 a.m. were dispensed in a 384-wells plate (Corning, NY, United States) to allow fluorescence measurement. The dye was excited at 480 nm, and emission was recorded at 530 nm. The change in [Ca^2+]i was assessed simultaneously in all wells using a Functional Drug Screening System (FDSS/μCELL) (Hamamatsu Phototonics K.K., Yokohama, Japan) at 37°C. Basal fluorescence was first measured for 30 s. […] P4 and PGE1 were tested at a near-saturating concentration in the HTS in order to evaluate a potential additive or synergistic effect induced by the compounds. […] For alkalization-induced Ca^2+ measurement, NH4Cl was used as a positive control at a final concentration of 10 mM. […] The Prestwick library was tested in technical duplicate. Ca^2+ response curves were normalized using the following formula F−F0/F0×100 , where F 0 is the average of the basal fluorescence prior to the addition of the compound of interest and F corresponds to the fluorescence value at each time point. The ∆F/F0 of the vehicle control (DMSO) was subtracted from all the other values to adjust for dilution and pipetting artifacts. The values of all compounds were normalized to their respective controls.
# Data are shown as mean ± standard deviation (SD) with “n” referring to the number of independent experiments performed using sperm samples from ≥3 different donors. Statistical analysis and fitting of dose-response relations were performed using GraphPad Prism 8.1.1 (Prism, La Jolla, United States). To generate sigmoidal curves, the concentrations were converted to their respective log values, and the data were normalized using the following formula: 100⋅x/Fmax , where Fmax is the maximum value of the positive control. A four-parameter Hill equation with a variable Hill coefficient was fitted to generate the EC02, EC50, and IC50. Statistical significance between control and treated conditions was evaluated using a one-way analysis of variance (ANOVA), followed by Dunnett´s test. A p-value <0.05 was considered significant.
# CatSper [2] = target: T1, CatSper; assay: Inhibition of P4-induced Ca2+ influx in human sperm (screen 2 inhibitors); format: cell-based
# Description: as §1
# Human semen samples were collected from healthy donors by masturbation after a recommended sexual abstinence period of minimum 2 days. Semen samples were allowed to liquefy at 37°C for 15–30 min. Motile spermatozoa were selected by a ‘swim-up’ procedure as previously described ([Strünker et al., 2011]). Briefly, 1 mL of semen was deposited in a 45°-inclined 50 mL Falcon tube with 4 mL of Human Tubular Fluid (HTF) medium containing: 93.8 mM NaCl, 4.7 mM KCl, 0.2 mM MgSO4, 0.37 mM KH2PO4, 2.04 mM CaCl2, 20.98 mM HEPES, 2.78 mM glucose, 21.4 mM Na-lactate, 4 mM NaHCO3, 0.33 mM Na-pyruvate, and the pH was adjusted to 7.35. Motile sperm were allowed to swim at 37°C for 1 hour. The supernatant was collected in 15 mL Falcon tubes and washed twice by centrifugation at 700 x g for 20 min. Sperm were supplemented with 3 mg/mL HSA. Written informed consent was obtained from all donors prior to donation and approved by the Cantonal Ethics Committee of the State of Geneva (CCER #14-147).
# Cells were loaded with the fluorescent Ca^2+ indicator Fluo-4 AM at a final concentration of 2.5 µM for 30 min at 37°C. Excess dye was washed via centrifugation at 700 x g for 20 min and sperm were resuspended in HTF medium to obtain a final concentration of 6.25 x 10^6 cells/mL. 20 μL of cells (corresponding to ∼125,000 cells) loaded with Fluo-4 a.m. were dispensed in a 384-wells plate (Corning, NY, United States) to allow fluorescence measurement. The dye was excited at 480 nm, and emission was recorded at 530 nm. The change in [Ca^2+]i was assessed simultaneously in all wells using a Functional Drug Screening System (FDSS/μCELL) (Hamamatsu Phototonics K.K., Yokohama, Japan) at 37°C. Basal fluorescence was first measured for 30 s. […] P4 and PGE1 were tested at a near-saturating concentration in the HTS in order to evaluate a potential additive or synergistic effect induced by the compounds. Non-specific CatSper inhibitor MDL 12330A was used as a negative control at final concentration of 20 µM while DMSO was used as a vehicle control. For alkalization-induced Ca^2+ measurement, NH4Cl was used as a positive control at a final concentration of 10 mM. Fluorescence was recorded for a total of 16.5 min: 30 s before injection, 12 min after the first injection of the tested compounds, and 4 min after the second injection of either P4 or PGE1. The Prestwick library was tested in technical duplicate. Ca^2+ response curves were normalized using the following formula F−F0/F0×100 , where F 0 is the average of the basal fluorescence prior to the addition of the compound of interest and F corresponds to the fluorescence value at each time point. The ∆F/F0 of the vehicle control (DMSO) was subtracted from all the other values to adjust for dilution and pipetting artifacts. The values of all compounds were normalized to their respective controls.
# [3] = maximal amplitude of steroid-induced [Ca2+]i increase, relative to P4, 3 independent experiments
# [4] = pooled from 3 independent experiments, read-out: Mean EC50 µM (±SD)
# [5] = P4-induced response, pooled from 3 independent experiments, read-out: Mean IC50 (P4) µM (±SD)
# [6] = EC50 (±SD), increase in [Ca2+]i, dose-response 90 µM to 0.3 nM
# [7] = Mean EC50 µM (±SD), pooled from 3 independent experiments
# [8] = IC50 (±SD), inhibition of P4-induced Ca2+ response, dose-response 90 µM to 0.3 nM
# [9] = Mean IC50 (P4) µM (±SD), P4-induced response, pooled from 3 independent experiments
Compound,Emax (CatSper [1]; [3]) [%],EC50 (CatSper [1]; [4]) [µM],Max P4 inhibition (%) (± SD) (CatSper [2]; 3 independent experiments),IC50 (CatSper [2]; [5]) [µM],Emax (CatSper [1]) [%],also measured
C#C[C@]1(OC(C)=O)CC[C@H]2[C@@H]3CCC4=CC(=NO)CC[C@@H]4[C@H]3CC[C@@]21CC (mixture of isomers) [norgestimate],79,0.918,53 (±5) %,8.05,–,–
C[C@]12CC[C@@H](O)C[C@H]1CC[C@@H]1[C@@H]2CC[C@]2(C)C(=O)CC[C@@H]12 [3-alpha-hydroxy-5-beta-androstan-17-one],–,0.915,66 (±2) %,1.52,–,Max amplitude (%) (± SD) (CatSper [1]; [3]): 66 (±2) %
C[C@]12CC[C@H]3[C@@H](CCC4=CC(=O)CC[C@@]43C)[C@@H]1CC[C@@H]2C(=O)CO [Deoxycorticosterone],–,–,86 (±3) %,–,94,"EC50 (CatSper [1]; [6]): 0.302 µM; EC50 (CatSper [1]; EC50, increase in [Ca2+]i): 0.3 µM; EC50 (CatSper [1]; [7]): 0.295 µM; reduction of the P4 response (CatSper [2]): more than 86%; IC50 (CatSper [2]; [8]): 0.523 µM; IC50 (CatSper [2]; IC50, reduction of P4 response): 0.5 µM"
CC(=O)[C@H]1CC[C@H]2[C@@H]3C[C@H](C)C4=CC(=O)CC[C@]4(C)[C@H]3[C@@H](O)C[C@]12C [Medrysone],104,0.23,83 (±4) %,0.471,–,"EC50 (CatSper [1]; increase in [Ca2+]i, dose-response 90 µM to 0.3 nM, read-out: EC50 (±SD)): 0.24 µM; IC50 (CatSper [2]; inhibition of P4-induced Ca2+ response, dose-response 90 µM to 0.3 nM, read-out: IC50 (±SD)): 0.569 µM"
C[C@]12CC[C@H]3[C@@H](CCC4=CC(=O)CC[C@@H]43)[C@@H]1CC[C@@H]2O [Nandrolone],–,–,85 (±1) %,–,98,EC02 compared with reported maximum concentration in blood serum (CatSper [1]): EC02 below the reported maximum concentration found in blood serum; EC50 (CatSper [1]; [6]): 0.306 µM; increase in [Ca2+]i (CatSper [1]; at low concentrations in the nanomolar range): 30%; IC50 (CatSper [2]; [8]): 0.711 µM; IC50 (CatSper [2]; [9]): 0.729 µM
CC(=O)C1CCC2C3CC[C@H]4CC(=O)CC[C@]4(C)C3CC[C@]12C (stereo partly drawn) [S46],–,–,90 (±6) %,–,141,"EC50 (CatSper [1]; EC50, increase in [Ca2+]i in human sperm): 0.032 µM and 0.073 µM; IC50 (CatSper [2]; IC50, decrease of response to P4): 0.046 µM and 0.138 µM"
CC12CCC(O)CC1CCC1C2CCC2(C)C1CCC2(C)O (stereo not drawn) [S64],–,–,55 (±1) %,–,65,EC50 (CatSper [1]; [7]): 0.265 µM; IC50 (CatSper [2]; [9]): 0.682 µM
CC12CCC3C(CC[C@H]4CC(=O)CCC34C)C1CCC2O (stereo partly drawn) [S65],–,–,95 (±1) %,–,91,–
CC12CCC(O)CC1=CCC1C2CCC2(C)C(C(=O)O)CCC12 (stereo not drawn) [S67],–,–,86 (±3) %,–,80,EC50 (CatSper [1]; [7]): 0.108 µM; IC50 (CatSper [2]; [9]): 0.253 µM
C[C@]12CC[C@H]3[C@@H](CC[C@H]4C[C@H](O)CC[C@@H]43)[C@@H]1CCC2=O [S85],–,–,96 (±2) %,–,99,EC50 (CatSper [1]; [7]): 0.259 µM; IC50 (CatSper [2]; [9]): 0.495 µM
C[C@]12CC[C@H]3[C@@H](CCC4=CC(=O)CC[C@@]43C)[C@@H]1CC[C@@H]2O [Testosterone],–,–,81 (±6) %,–,87,EC50 (CatSper [1]; [6]): 0.407 µM; IC50 (CatSper [2]; [9]): 1.09 µM
C[C@]12CCC(=O)C=C1CC[C@@H]1[C@@H]2C(=O)C[C@]2(C)C(=O)CC[C@@H]12 [adrenosterone],–,14.5,24 (±3) %,30.8,–,Max amplitude (%) (± SD) (CatSper [1]; [3]): 26 (±2) %
C[C@]12CCC(=O)C=C1C=C[C@@H]1[C@@H]2CC[C@@]2(C)[C@H]1CC[C@@]21CCC(=O)O1 [canrenone],69,7.51,49 (±1) %,–,–,–
C[C@]12C[C@H](O)[C@H]3[C@@H](CCC4=CC(=O)CC[C@@]43C)[C@@H]1CC[C@@H]2C(=O)CO [corticosterone],55,2.94,49 (±5) %,6.1,–,–
C[C@]12CC[C@H]3C(=CCc4cc(O)ccc43)[C@@H]1CCC2=O [equilin],–,–,–,–,62,EC50 (CatSper [1]): 0.999 µM; IC50 (CatSper [2]): 1.85 µM; Max P4 inhibition (%) (± SD) (CatSper [2]): 50 (±11) %
C[C@]12CC[C@@H]3c4ccc(O)cc4CC[C@H]3[C@@H]1CC[C@@H]2O [estradiol-17 beta],–,0.761,67 (±3) %,1.45,–,Max amplitude (%) (± SD) (CatSper [1]; [3]): 75 (±8) %
C[C@]12CC[C@@H]3c4ccc(O)cc4CC[C@H]3[C@@H]1CCC2=O [estrone],49,–,67 (±2) %,–,–,EC50 (CatSper [1]; [7]): 0.267 µM; IC50 (CatSper [2]; [9]): 0.56 µM
C#C[C@]1(O)CC[C@H]2[C@@H]3CCC4=CC(=O)CC[C@]4(C)[C@H]3CC[C@@]21C [ethisterone],–,–,10 (±9) %,5.13,8,–
C#C[C@]1(O)CC[C@H]2[C@@H]3CCc4cc(OC)ccc4[C@H]3CC[C@@]21C [ethynylestradiol 3-methyl ether],9,–,4 (±3) %,–,–,–
C=C1C[C@@H]2[C@H](CC[C@]3(C)C(=O)CC[C@@H]23)[C@@]2(C)C=CC(=O)C=C12 [exemestane],–,0.557,–,0.309,63,Max P4 inhibition (%) (± SD) (CatSper [2]): 56 (±2) %
CC(=O)[C@@]1(O)CC[C@H]2[C@@H]3C[C@H](C)C4=CC(=O)C=C[C@]4(C)[C@@]3(F)[C@@H](O)C[C@@]21C [fluorometholone],42,0.702,29 (±12) %,6.51,–,–
